Structures are written as SMILES. Counter-ions that a name gives are not always drawn.

One test has as its system MLKL phosphorylation in HT29-L23 human colorectal adenocarcinoma cells. Kind of test: MLKL Phosphorylation High-Content Assay. Conditions: Homo sapiens, 6 h, necroptosis induced with TNFα, SMAC mimetic and Z-VAD, read-out: pMLKL (IC50). It is filed as cell-based. As for the experimental part: MLKL Phosphorylation High-Content Assay
HT29-L23 human colorectal adenocarcinoma cells were maintained in RPMI 1640 medium containing 10% heat-inactivated FBS, 1% Penicillin-Streptomycin and 10 mM HEPES. Cells were seeded at 2,000 cells/well in 384 well tissue culture-treated microplates (Greiner #781090-3B) and incubated at 37° C. (5% CO2/95% O2) for 2 d. […] (5% CO2/95% O2). Necroptopsis was induced using a mixture of human TNFα (35 ng/mL) (Peprotech #300-01A), SMAC mimetic (from US 2015/0322111 A1) (700 nM) and Z-VAD ([…]) (BD pharmingen #51-6936). Following 6 h incubation at 37° C. (5% CO2/95% O2), the cells were fixed with 4% formaldehyde (ACROS 11969-0010) for 15 min at rt, then permeabilized with phosphate buffered saline (PBS) containing 0.2% Triton-X-100 for 10 min. MLKL phosphorylation was detected using anti-MLKL (phospho S358) antibody (Abeam #ab 187091) (1:1000 dilution in Blocking Buffer [PBS supplemented with 0.1% BSA]) with ON incubation at 4° C. After washing three times in PBS, goat anti-rabbit Alexa-488 (1:1000 dilution) (Life Technologies, A11008) and Hoechst 33342 (Life Technologies, H3570) (1:2000 dilution) in Blocking Buffer were added for 1 h at rt.
Following another three cycles of washes in PBS, the microplates were sealed, and cellular images were acquired in the Cellomics ArrayScan VTI high-content imager equipped with an X1 camera. Fluorescent images were taken using a 10× objective and the 386-23 BGRFRN_BGRFRN and 485-20 BGRFRN_BGRFRN filter sets, for nuclei and MLKL phosphorylation, respectively. The image sets were analyzed using the Compartmental Analysis Bioapplication software (Cellomics). The level of MLKL phosphorylation was quantified as MEAN_CircRingAvglntenRatio. The maximal inhibitory response was defined by the activity induced by Neels (CAS #: 852391-15-2, 6.25 μM). […] The data were fitted using the 4-parameter logistic equation to calculate the IC50 and Ymax values.
By IC50 is commonly meant the concentration needed to halve the response being measured. Take `[2H]C([2H])([2H])Oc1ncc(-c2ccc3c(C(=O)NC)n[nH]c3c2)cc1C(=O)NC(C)c1ccccc1OC(F)(F)F` (single isomer, unassigned) [Example 15, 6-(6-methoxyd3-5-((1-(2-(trifluoromethoxy)phenyl)ethyl)carbamoyl)pyridin-3-yl)-N-methyl-1H-indazole-3-carboxamide]: the IC50 was 3.4 nM. Same read-out and setting: to `[2H]C([2H])([2H])Oc1ncc(-c2ccc3c(C(=O)NC)n[nH]c3c2)cc1C(=O)N[C@@H](c1cc(C(F)(F)F)ccc1F)C([2H])([2H])[2H]` [Example 4, (R)-6-(5-((1-(2-fluoro-5-(trifluoromethyl)phenyl)ethyl-2,2,2-d3)carbamoyl)-6-(methoxy-d3)pyridin-3-yl)-N-methyl-1H-indazole-3-carboxamide, TFA] belongs 19 nM.

In the case of `[2H]C([2H])([2H])NC(=O)c1n[nH]c2cc(-c3cnc(OC([2H])([2H])[2H])c(C(=O)N[C@@H](C)c4cc(OC(F)(F)F)ccc4F)c3)ccc12` [Example 5, (S)-6-(5-((1-(2-fluoro-5-(trifluoromethoxy)phenyl)ethyl)carbamoyl)-6-(methoxy-d3)pyridin-3-yl)-N-(methyl-d3)-1H-indazole-3-carboxamide], the IC50 was determined as 9 nM.

For `[2H]C([2H])([2H])Oc1ncc(-c2ccc3c(C(=O)NC)n[nH]c3c2)cc1C(=O)N[C@@H](c1cc(OC(F)(F)F)ccc1F)C([2H])([2H])[2H]` [Example 9, (R)-6-(5-((1-(2-fluoro-5-(trifluoromethoxy)phenyl)ethyl-2,2,2-d3)carbamoyl)-6-(methoxy-d3)pyridin-3-yl)-N-methyl-1H-indazole-3-carboxamide, TFA], the IC50 is 22 nM.

Regarding `[2H]C([2H])([2H])Oc1ncc(-c2ccc3c(C(=O)NC)n[nH]c3c2)cc1C(=O)N[C@H](c1cc(OC(F)(F)F)ccc1F)C([2H])([2H])[2H]` [Example 10, (S)-6-(5-((1-(2-fluoro-5-(trifluoromethoxy)phenyl)ethyl-2,2,2-d3)carbamoyl)-6-(methoxy-d3)pyridin-3-yl)-N-methyl-1H-indazole-3-carboxamide], the IC50 is 6.4 nM. Turning to `[2H]C([2H])([2H])Oc1ncc(-c2ccc3c(C(=O)NC)n[nH]c3c2)cc1C(=O)N[C@@H](c1cccc(OC(F)(F)F)c1)C([2H])([2H])[2H]` [Example 11, (R)-6-(6-(methoxy-d3)-5-((1-(3-(trifluoromethoxy)phenyl)ethyl-2,2,2-d3)carbamoyl)pyridin-3-yl)-N-methyl-1H-indazole-3-carboxamide, TFA], the IC50 turned out to be 223 nM. Take `[2H]C([2H])([2H])Oc1ncc(-c2ccc3c(C(=O)NC)n[nH]c3c2)cc1C(=O)N[C@H](C)c1cccc(OC(F)(F)F)c1` [Example 14, (R)-6-(6-methoxyd3-5-((1-(3-(trifluoromethoxy)phenyl)ethyl)carbamoyl)pyridin-3-yl)-N-methyl-1H-indazole-3-carboxamide]: the IC50 worked out at 37 nM. Turning to `[2H]C([2H])([2H])Oc1ncc(-c2ccc3c(C(=O)NC)n[nH]c3c2)cc1C(=O)N[C@@H](C)c1cccc(OC(F)(F)F)c1` [Example 25], the IC50 is 190 nM. `[2H]C([2H])([2H])Oc1ncc(-c2ccc3c(C(=O)NC)n[nH]c3c2)cc1C(=O)N[C@H](C)CC(=O)OC(C)(C)C` [Example 29, tert-butyl (3R)-3-{[2-(deutero)-methoxy-5-[3-(methylcarbam-oyl)-1H-indazol-6-yl]pyridin-3-yl]formamido}butanoate]: the IC50 turned out to be 76 nM. Turning to `[2H]C([2H])([2H])Oc1ncc(-c2ccc3c(C(=O)NC)n[nH]c3c2)cc1C(=O)N[C@H](C)c1cc(OC(F)(F)F)ccc1F` [Example 30, 6-(5-{[(1R)-1-[2-fluoro-5-(tri-fluoromethoxy)phenyl]ethyl]-carbamoyl}-6-(deutero)methoxy-pyridin-3-yl)-N-methyl-1H-indazole-3-carboxamide], the IC50 was determined as 48 nM.

For `[2H]C([2H])([2H])Oc1ncc(-c2ccc3c(C(=O)NC)n[nH]c3c2)cc1C(=O)N[C@@H](C)c1cc(C(F)(F)F)ccc1F` [Example 32, 6-(5-{[(1S)-1-[2-fluoro-5-(trifluoromethyl)phenyl]ethyl]-carbamoyl}-6-(deutero)meth-oxypyridin-3-yl)-N-methyl-1H-indazole-3-carboxamide], the IC50 is 19 nM. Regarding `[2H]C([2H])([2H])Oc1ncc(-c2ccc3c(C(=O)NC)n[nH]c3c2)cc1C(=O)N[C@H](C)c1ccccc1C(F)(F)F` [Example 33, 6-[6-(deutero)methoxy-5-{[(1R)-1-[2-(trifluoromethyl)phenyl]-ethyl]carbamoyl}pyridin-3-yl]-N-methyl-1H-indazole-3-carbox-amide], the IC50 worked out at 25 nM. Consider `CNC(=O)c1n[nH]c2cc(-c3cnc(OC)c(C(=O)NCCC(O)c4ccc(OC)cc4)c3)ccc12` (stereo not drawn) [Example 38, 6-(5-{[3-hydroxy-3-(4-methoxy-phenyl)propyl]carbamoyl}-6-methoxypyridin-3-yl)-N-methyl-1H-indazole-3-carboxamide], for which the IC50 stood at 13 nM. On to `CNC(=O)c1n[nH]c2cc(-c3cnc(OC)c(C(=O)NCCC(O)c4ccc(F)c(F)c4)c3)ccc12` (stereo not drawn) [Example 39, 6-(5-{[3-(3,4-difluorophenyl)-3-hydroxypropyl]carbamoyl}-6-methoxypyridin-3-yl)-N-methyl-1H-indazole-3-carboxamide], for which the IC50 was 8 nM.

For `CNC(=O)c1n[nH]c2cc(-c3cnc(OC)c(C(=O)NCCC(O)c4ccc(F)cc4)c3)ccc12` (stereo not drawn) [Example 40, 6-(5-{[3-(4-fluorophenyl)-3-hydroxypropyl]carbamoyl}-6-methoxypyridin-3-yl)-N-methyl-1H-indazole-3-carboxamide], the IC50 amounted to 5.7 nM. Consider `CNC(=O)c1n[nH]c2cc(-c3cnc(OC)c(C(=O)NCCC(C)c4ccc(F)cc4)c3)ccc12` (stereo not drawn) [Example 41, 6-(5-{[3-(4-fluorophenyl)-butyl]carbamoyl}-6-methoxy-pyridin-3-yl)-N-methyl-1H-indazole-3-carboxamide], for which the IC50 amounted to 0.6 nM.

For `CNC(=O)c1n[nH]c2cc(-c3cnc(OC)c(C(=O)NCC4CC4c4cccc(F)c4)c3)ccc12` (stereo not drawn) [Example 42, 6-[5-({[2-(3-fluorophenyl)cyclo-propyl]methyl}carbamoyl)-6-methoxypyridin-3-yl]-N-methyl-1H-indazole-3-carboxamide], the IC50 amounted to 88 nM. On to `CNC(=O)c1n[nH]c2cc(-c3cnc(OC)c(C(=O)N[C@@H]4C[C@H]4c4ccccc4)c3)ccc12` [Example 45, 6-(6-methoxy-5-{[(1R,2S)-2-phenylcyclopropyl]carbamoyl}-pyridin-3-yl)-N-methyl-1H-indazole-3-carboxamide], for which the IC50 amounted to 5 nM. As to `CNC(=O)c1n[nH]c2cc(-c3cnc(OC)c(C(=O)N[C@H]4C[C@@H]4c4ccccc4)c3)ccc12` [Example 46, 6-(6-methoxy-5-{[(1S,2R)-2-phenylcyclopropyl]carbamoyl}-pyridin-3-yl)-N-methyl-1H-indazole-3-carboxamide], the IC50 was 4.4 nM. For the compound `CNC(=O)c1n[nH]c2cc(-c3cnc(OC)c(C(=O)NCCS(=O)(=O)Nc4ccccc4)c3)ccc12` [Example 47, 6-(6-methoxy-5-{[2-(phenyl-sulfamoyl)ethyl]carbamoyl}-pyridin-3-yl)-N-methyl-1H-indazole-3-carboxamide], the IC50 turned out to be 38 nM. For the compound `CNC(=O)c1n[nH]c2cc(-c3cnc(OC)c(C(=O)NCc4ccccc4N4CCC(CO)CC4)c3)ccc12` [Example 57, 6-{5-[({2-[4-(hydroxymethyl)-piperidin-1-yl]phenyl}methyl)-carbamoyl]-6-methoxypyridin-3-yl}-N-methyl-1H-indazole-3-carboxamide], the IC50 amounted to 110 nM.

Still in this test, the particulars now being: necroptosis induced with TNFα, SMAC mimetic and Z-VAD, 6 h, read-out: pMLKL (IC50).
Consider `CNC(=O)c1n[nH]c2cc(-c3cnc(OC)c(C(=O)NC[C@H]4C[C@@H]4c4ccc(F)cc4)c3)ccc12` [Example 43, 6-[5-({[(1S,2S)-2-(4-fluoro-phenyl)cyclopropyl]methyl}-carbamoyl)-6-methoxypyridin-3-yl]-N-methyl-1H-indazole-3-carboxamide], for which the IC50 was 99 nM. Turning to `CNC(=O)c1n[nH]c2cc(-c3cnc(OC)c(C(=O)NCC4CC4c4cccc(F)c4)c3)ccc12` (stereo not drawn) [Example 48, 6-[5-({[2-(3-fluorophenyl)-cyclopropyl]methyl}carbamoyl)-6-methoxypyridin-3-yl]-N-methyl-1H-indazole-3-carbox-amide], the IC50 is 176 nM. As for `CNC(=O)c1n[nH]c2cc(-c3cnc(OC)c(C(=O)NCC4CC4c4cccc(F)c4)c3)ccc12` (stereo not drawn) [Example 49, 6-[5-({[2-(3-fluorophenyl)-cyclopropyl]methyl}carbamoyl)-6-methoxypyridin-3-yl]-N-methyl-1H-indazole-3-carbox-amide], the IC50 is 21 nM.

(Values after patent US12172975B2, “1H-indazole carboxamides as receptor-interacting protein kinase 1 inhibitors (RIPK1)” (BRISTOL-MYERS SQUIBB COMPANY, priority 2018, dated 2024).)
